Measured values taken from publication PMC10603992, “Antimicrobial and Adjuvant Potencies of Di-n-alkyl Substituted Diazalariat Ethers” (Antibiotics, 2023).
In brackets after ≈: the same amount, converted by molar mass. Where two headings read alike, the source gives them in different places.

What was measured:
DH5α E. coli [1] = system: DH5α E. coli; set-up: method as in PMID 15858645; conditions: free bases, previously reported data; cited from earlier work
K12 E. coli = experiment: MIC against K12 E. coli; type: cell-based; conditions: Escherichia coli
Escherichia coli = conditions: administered with ½ MIC of C8LE; earlier work, no reference given; cited from earlier work
DH5α E. coli [2] = experiment: MIC against DH5α E. coli; type: cell-based; conditions: Escherichia coli, no additional antimicrobial; MICs in table limited to […]; read-out: Minimum inhibitory concentration against DH5α E. coli
[3] = Planar bilayer voltage clamp; conditions: 70 mV, KCl 450 mM, HEPES 10 mM, pH 7
Text: This compound was therefore converted into its bis(methiodide) to form C11LE•2MeI (8). It is clear from the trace shown that only spiking behavior was observed and a large opening eventually emerged. […] The formation of a large opening in the membrane comports with the expectation of increased permeability. Such an opening is also in accord with the observation (see above) of depolarization of bacterial membranes.
Figure 18 Planar bilayer voltage clamp trace for C11LE•2MeI (8) at 70 mV. Axes: Y = millivolts and X axis = 10 s per section. Conditions: soybean asolectin membrane, KCl (450 mm) buffer solution (HEPES, 10 mm, pH 7).
The planar bilayer experiments were conducted as described previously.

S. aureus [4] = experiment: MIC against S. aureus under various pH and media conditions; type: cell-based, Staphylococcus aureus
[5] = target: T1, NorA efflux pumps in S. aureus 1199B (Staphylococcus aureus, UniProt P0A0J7); experiment: Efflux pump inhibition (EthBr accumulation); type: cell-based; set-up: Efflux pump inhibition (increase in EthBr fluorescence): dose or concentration left out as unconfirmed; conditions: […] µM compound
T1 construct: Increase in EthBr fluorescence observed by its accumulation in S. aureus 1199B cytosol; endogenous in cells; host or cells: Staphylococcus aureus 1199B (whole bacteria)
T1 sequence (P0A0J7 whole entry): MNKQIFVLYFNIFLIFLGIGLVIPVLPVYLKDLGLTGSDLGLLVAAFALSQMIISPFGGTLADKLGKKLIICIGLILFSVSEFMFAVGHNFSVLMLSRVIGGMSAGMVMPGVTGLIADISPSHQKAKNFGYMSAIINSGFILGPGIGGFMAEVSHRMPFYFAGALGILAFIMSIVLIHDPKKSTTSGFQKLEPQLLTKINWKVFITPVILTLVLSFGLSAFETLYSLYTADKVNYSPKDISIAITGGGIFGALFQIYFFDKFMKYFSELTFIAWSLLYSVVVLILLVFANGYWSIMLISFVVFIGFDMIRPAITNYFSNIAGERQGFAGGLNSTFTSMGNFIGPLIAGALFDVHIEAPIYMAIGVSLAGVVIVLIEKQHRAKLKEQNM
Text: An important reason for the choice of S. aureus 1199B for study is that its resistance to norfloxacin is known to result from the presence of the Nor A efflux pump. Efflux pumps require regulated ion balance to function so that exogeneous substances such as antibacterials can effectively be ejected. Ethidium bromide (EthBr) can penetrate bacteria and is detectable by its fluorescence. To the extent that ion homeostasis is disrupted, ion balance is deregulated, and efflux pump function is compromised or inhibited.
Experimental details have been reported in [44].

S. aureus [6] = experiment: Membrane depolarization by DiBAC4(3) fluorescence; type: cell-based, Staphylococcus aureus; conditions: compound at ½ MIC
Procedure: Disruption of ion homeostasis by 1–6 should be apparent in the associated membrane depolarization. […] The dye is readily absorbed by bacteria owing to the negative internal potential. Disruption of ion homeostasis will affect both proton and potassium cation regulation. The internalized, self-quenched dye will be released and increased fluorescence will be observed.
Two types of experiments were performed to assess membrane depolarization. […] If ion homeostasis is affected by the presence of any of these compounds, the fluorescent response should increase as the lariat ether concentration increased.
A second series of experiments was performed to determine the relationship of disrupted ion homeostasis, as reflected in membrane depolarization with cellular vitality (Figure 17). […] Alamar blue (see above) was used to determine cell viability. No depolarization was apparent in the S. aureus control in the absence of a lariat ether or lariat ether derivative. Depolarization was greatest for C10LE•MeI (3). […] We note that the MIC values for S. aureus observed for 2, 3, 5, and 6 were similar.
The membrane depolarization study was conducted as described in [48].

S. aureus 1199B [7] = experiment: MIC against S. aureus 1199B; type: cell-based, Staphylococcus aureus; conditions: MHII media, 90% growth inhibition
[8] = Turbidimetric solubility limit in MHII or PBS; type: physicochemical; conditions: DMSO ≤0.5%
Tet^R E. coli = experiment: MIC against Tet^R E. coli; type: cell-based
S. aureus 1199B [9] = experiment: Growth curves; type: cell-based, Staphylococcus aureus; conditions: ½ MIC, OD600 over 24 h
Procedure: In the studies above, 1–6 were administered at ½ MIC concentrations. At these concentrations, no toxic effect of the compound on cells was anticipated. In order to confirm the effect of compound concentration on S. aureus viability, growth curves were conducted for each compound. In all cases, S. aureus alone was used as control. For the three C10LE compounds (1–3), 32 µM and 64 µM concentrations of norfloxacin were added to the norfloxacin-resistant S. aureus strain as an additional control. The concentration ranges for each of compounds 1–6 varied with their potencies.
The determination of growth curves was performed against S. aureus 1199B, which is norfloxacin resistant at 32 µM. Norfloxacin was used at 64 µM as a control. The compounds tested were 1–6, C10LE and C12LE and their hydrochlorides and methiodides. S. aureus 1199B was cultured overnight from a single CFU and reduced to OD600 = 0.55 before use. Samples were prepared in LB media to which was added either the norfloxacin control or the combination of norfloxacin and one of the compounds C10LE (1), C10LE•2HCl (2), C10LE•2MeI (3), C12LE (4), C12LE•2HCl (5), or C12LE•2MeI (6). Dimethylsulfoxide (DMSO) was used to solubilize the lariat ether derivative, when necessary, but its concentration was never allowed to exceed 0.5% (v/v) in all experiments. […] The absorbance of each sample (600 nm) was recorded every quarter hour for 24 h.

[10] = Dynamic light scattering of C12LE aggregation; type: physicochemical; conditions: water, in the presence of the antimicrobial or C12LE alone
Procedure: It is known that dialkyldiazacrowns form stable aggregates in aqueous solution [57, 62]. It was hypothesized that complexation between antimicrobials and macrocycles would alter or prevent the ability of the complex to form aggregates. […] Indeed, the particle sizes observed when chlortetracycline is present was almost indistinguishable from particle formation by C12LE (4) alone.
Measurements were performed on a Brookhaven Instruments Corp. ZetaPALS instrument at 25 °C using a 660 nm laser and correlating scattering at 90°. Samples were prepared by initially dissolving the amphiphile in filtered DMSO obtained from ThermoFisher. Next, they were diluted into 1× PBS such that DMSO was fixed at 0.5% in 15 mL sterile conical tubes. 10× PBS was obtained commercially, then diluted 10-fold in MQ H2O. The mixture was vortexed and incubated at room temperature for 2 h, then transferred to a clean quartz cuvette and equilibrated in the instrument for 10 min at 25 °C. Ten measurements consisting of 2 min runs were made on each sample. The average effective diameter was calculated with standard error reported for at least three trials.

Compound	Minimum inhibitory concentration against DH5α E. coli (DH5α E. coli [1]) [µM]	MIC (K12 E. coli; read-out: MIC K12 E. coli, MHII media, 90% growth inhibition) [µM]	Fold increase in potency of rifampicin against E. coli (Escherichia coli) [fold]	MIC (DH5α E. coli [2]) [µM]	Channel formation in planar bilayer [3]	MIC (S. aureus [4]; MHII, pH 6.4, read-out: MIC S. aureus, MHII pH 6.4) [µM]	MIC (S. aureus [4]; MHII, pH 7.4, read-out: MIC S. aureus, MHII pH 7.4) [µM]	Change in MIC as the pH was increased from 6.4 to 8.4 (S. aureus [4]; S. aureus, Mueller Hinton medium)	MIC (S. aureus [4]; Staphylococcus aureus, pH 8.4, MHII, pH 8.4, read-out: MIC S. aureus, MHII pH 8.4) [µM]	MIC (K12 E. coli; MHII media, 90% growth inhibition, read-out: MIC K12 E. coli) [µM]	Efflux pump inhibition (increase in EthBr fluorescence) [5]	Membrane depolarization (DiBAC4(3) fluorescence) (S. aureus [6])	MIC S. aureus 1199B (S. aureus 1199B [7]) [µM]	solubility at 2 h ([8]; Mueller Hinton II, pH 7.3, 2 h at 37 °C, read-out: Solubility limit in MHII) [µM]	solubility at 2 h ([8]; phosphate-buffered saline, 2 h at 37 °C, read-out: Solubility limit in PBS) [µM]	MIC (Tet^R E. coli; Escherichia coli, read-out: MIC Tet^R E. coli) [µM]	MIC Tet^R E. coli (Tet^R E. coli; MHII media, 90% growth inhibition)	Effect on bacterial growth (growth curves) (S. aureus 1199B [9])	melting point [°C]	Slope of C12LE aggregation (DLS particle size) [10]
CCCCCCCCN1CCOCCOCCN(CCCCCCCC)CCOCCOCC1 [C8LE (7)]	>128	100 (≈ 48.7 µg/mL)	20	206 (≈ 100 µg/mL)	–	–	–	–	–	–	–	–	–	–	–	–	–	–	–	–
CCCCCCCCCCC[N+]1(C)CCOCCOCC[N+](C)(CCCCCCCCCCC)CCOCCOCC1 (stereo not drawn) [C11LE•2MeI (8)]	–	–	–	–	does not form stable channels	–	–	–	–	–	–	–	–	–	–	–	–	–	–	–
CCCCCCCCCCCCN1CCOCCOCCN(CCCCCCCCCCCC)CCOCCOCC1 [C12LE (4), N,N′-Di-n-dodecyl-4-13-diaza-18-crown-6]	–	–	–	> 128	–	>16	>32	changes in MIC were observed	> 64	> 128	most potent efflux pump inhibition	failed to show any significant evidence of membrane depolarization	32 (≈ 19.2 µg/mL)	16 (≈ 9.58 µg/mL)	16 (≈ 9.58 µg/mL)	> 64	inactive	growth effects were observed at ½ MIC and lower	141 to 144	2.95
